Reference: patent publication US9278954B2, “Pyrrolidine derivatives, pharmaceutical compositions and uses thereof” (Boehringer Ingelheim International GmbH, priority 2013, dated 2016)

What follows are compounds tested against human ACC2 (Homo sapiens (Human), UniProt O00763) (assay: ACC2 assay (spectrophotometric 384 well assay, NADH-linked kinetic method)). Conditions: hACC2 construct lacking the 128 N-terminal amino acids; 25° C., 340 nm over 15 minutes.
Format: biochemical
Experimental: Spectrophotometric 384 Well Assay
Malonyl CoA formation by acetyl CoA carboxylases is stoichometrically linked to the consumption of ATP. ACC2 activity is measured in a NADH-linked kinetic method measuring ADP generated during the ACC reaction using a coupled lactate dehydrogenase/pyruvate kinase reaction.
The protein is then expressed in insect cells using a baculoviral expression system. Protein purification is performed by anion exchange.
All compounds are dissolved in dimethyl sulfoxide (DMSO) to a concentration of 10 mM.
The enzymatic reaction is then started by addition of a mixture of NADH, acetyl
Coenzyme A (both […].) and ATP (500 uM f.c.). The decrease of the optical density (slope S) is then determined at 25° C. at a wavelength of 340 nm over 15 minutes in a spectrophotometric reader.
Each assay microtiter plate contains wells with vehicle instead of compound as controls for the non-inhibited enzyme (100% CTL; ‘HIGH’) and wells without acetyl-CoA as controls for non-specific NADH degradation (0% CTL; ‘LOW’).

human ACC2, sequence (O00763 129-2458): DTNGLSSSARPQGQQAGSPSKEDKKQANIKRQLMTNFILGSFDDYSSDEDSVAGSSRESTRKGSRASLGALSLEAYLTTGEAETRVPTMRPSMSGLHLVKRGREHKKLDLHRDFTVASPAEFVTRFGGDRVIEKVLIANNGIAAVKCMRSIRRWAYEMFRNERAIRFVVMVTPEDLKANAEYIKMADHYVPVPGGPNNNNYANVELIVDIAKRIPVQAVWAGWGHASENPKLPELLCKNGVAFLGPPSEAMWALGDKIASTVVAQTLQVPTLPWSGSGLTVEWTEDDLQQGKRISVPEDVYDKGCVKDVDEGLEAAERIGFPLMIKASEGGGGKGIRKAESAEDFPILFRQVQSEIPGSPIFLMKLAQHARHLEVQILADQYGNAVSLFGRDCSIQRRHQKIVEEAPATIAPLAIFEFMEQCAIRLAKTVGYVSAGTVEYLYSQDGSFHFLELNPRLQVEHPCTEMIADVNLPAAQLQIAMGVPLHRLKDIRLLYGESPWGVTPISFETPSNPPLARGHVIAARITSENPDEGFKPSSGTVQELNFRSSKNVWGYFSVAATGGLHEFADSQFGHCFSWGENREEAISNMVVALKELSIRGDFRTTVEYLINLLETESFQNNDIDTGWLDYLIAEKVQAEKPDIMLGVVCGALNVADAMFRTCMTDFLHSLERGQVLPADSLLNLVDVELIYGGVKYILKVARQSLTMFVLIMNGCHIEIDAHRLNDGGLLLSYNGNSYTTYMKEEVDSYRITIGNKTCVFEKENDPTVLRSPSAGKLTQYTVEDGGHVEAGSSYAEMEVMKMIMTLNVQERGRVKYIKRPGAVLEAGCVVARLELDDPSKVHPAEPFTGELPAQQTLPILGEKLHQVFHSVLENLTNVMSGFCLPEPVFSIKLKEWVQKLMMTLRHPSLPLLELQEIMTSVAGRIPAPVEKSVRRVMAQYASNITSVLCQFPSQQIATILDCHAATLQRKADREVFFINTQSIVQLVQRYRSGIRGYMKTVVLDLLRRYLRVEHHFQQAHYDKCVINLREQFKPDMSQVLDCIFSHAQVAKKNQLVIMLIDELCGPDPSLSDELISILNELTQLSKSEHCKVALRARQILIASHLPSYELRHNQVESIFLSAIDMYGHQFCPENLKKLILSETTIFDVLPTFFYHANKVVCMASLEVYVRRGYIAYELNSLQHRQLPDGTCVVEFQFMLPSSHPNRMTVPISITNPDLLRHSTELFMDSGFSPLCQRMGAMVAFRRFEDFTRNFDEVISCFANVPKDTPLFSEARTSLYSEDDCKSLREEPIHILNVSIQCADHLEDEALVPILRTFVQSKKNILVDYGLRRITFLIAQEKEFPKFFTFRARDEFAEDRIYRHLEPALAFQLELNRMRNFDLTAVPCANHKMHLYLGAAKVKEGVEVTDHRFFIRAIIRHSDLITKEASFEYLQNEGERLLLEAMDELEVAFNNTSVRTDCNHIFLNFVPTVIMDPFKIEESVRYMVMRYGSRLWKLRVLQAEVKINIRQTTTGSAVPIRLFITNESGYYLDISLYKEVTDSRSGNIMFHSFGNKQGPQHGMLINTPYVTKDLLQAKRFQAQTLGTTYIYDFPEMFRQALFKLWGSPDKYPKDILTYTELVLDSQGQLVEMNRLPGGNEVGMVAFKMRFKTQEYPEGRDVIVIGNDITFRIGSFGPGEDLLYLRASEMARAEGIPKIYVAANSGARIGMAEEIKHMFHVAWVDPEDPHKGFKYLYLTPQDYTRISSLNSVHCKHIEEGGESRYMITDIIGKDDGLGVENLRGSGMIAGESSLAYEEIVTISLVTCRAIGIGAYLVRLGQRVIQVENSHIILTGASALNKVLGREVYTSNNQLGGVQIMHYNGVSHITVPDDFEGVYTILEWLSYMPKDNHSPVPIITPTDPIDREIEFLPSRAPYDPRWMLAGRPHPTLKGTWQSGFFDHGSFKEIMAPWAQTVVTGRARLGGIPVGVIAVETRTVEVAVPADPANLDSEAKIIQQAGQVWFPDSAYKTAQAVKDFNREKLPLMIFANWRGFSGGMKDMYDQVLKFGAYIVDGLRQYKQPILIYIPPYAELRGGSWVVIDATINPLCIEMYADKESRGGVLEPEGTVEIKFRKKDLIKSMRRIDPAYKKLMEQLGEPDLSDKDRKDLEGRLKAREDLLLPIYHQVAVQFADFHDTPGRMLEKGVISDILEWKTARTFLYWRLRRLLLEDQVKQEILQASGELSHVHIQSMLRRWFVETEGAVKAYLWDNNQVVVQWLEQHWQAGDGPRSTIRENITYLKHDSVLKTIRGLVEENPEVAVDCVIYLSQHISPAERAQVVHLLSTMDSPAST

Row | SMILES | IC50
1 | CC(C(=O)NC1CC1C)c1ccc(O[C@@H]2CCN(c3nc(N(C)C)ncc3F)C2)cc1 (single isomer, unassigned) [6.2 isomer 1] | 86 nM
2 | CC(C(=O)NC1CC1C)c1ccc(O[C@@H]2CCN(c3nc(N(C)C)ncc3F)C2)cc1 (single isomer, unassigned) [6.2 isomer 2] | 177 nM
3 | CC(C(=O)NC1CC1C)c1ccc(O[C@@H]2CCN(c3nc(N(C)C)ncc3F)C2)cc1 (single isomer, unassigned) [6.2 isomer 3] | 219 nM
4 | CC(C(=O)NC1CC1C)c1ccc(O[C@@H]2CCN(c3nc(N(C)C)ncc3F)C2)cc1 (single isomer, unassigned) [6.2 isomer 4] | 1480 nM
5 | CCNC(=O)C(C)c1ccc(O[C@@H]2CCN(c3ncnc(OCC(C)(C)O)c3Cl)C2)cc1 (single isomer, unassigned) [6.3 isomer 1] | 95 nM
6 | CCNC(=O)C(C)c1ccc(O[C@@H]2CCN(c3ncnc(OCC(C)(C)O)c3Cl)C2)cc1 (single isomer, unassigned) [6.3 isomer 2] | 1100 nM
7 | CC(C(=O)NC1CC1C)c1ccc(O[C@@H]2CCN(c3ncnc(OCC(C)(C)O)c3Cl)C2)cc1 (single isomer, unassigned) [6.4 isomer 1] | 121 nM
8 | CC(C(=O)NC1CC1C)c1ccc(O[C@@H]2CCN(c3ncnc(OCC(C)(C)O)c3Cl)C2)cc1 (single isomer, unassigned) [6.4 isomer 2] | 681 nM
9 | CC(C(=O)NC1CC1C)c1ccc(O[C@@H]2CCN(c3ncnc(OCC(C)(C)O)c3Cl)C2)cc1 (single isomer, unassigned) [6.4 isomer 3] | 127 nM
10 | CC(C(=O)NCC(F)F)c1ccc(O[C@@H]2CCN(c3ncnc(OCC(C)(C)O)c3Cl)C2)cc1 (single isomer, unassigned) [6.5 isomer 1] | 135 nM
11 | CC(C(=O)NCC(F)F)c1ccc(O[C@@H]2CCN(c3ncnc(OCC(C)(C)O)c3Cl)C2)cc1 (single isomer, unassigned) [6.5 isomer 2] | 872 nM
12 | CCNC(=O)C(C)c1ccc(O[C@@H]2CCN(c3nc(N(C)C)ncc3F)C2)cc1 (single isomer, unassigned) [6.6 isomer 1] | 126 nM
13 | CCCNc1nccc(N2CC[C@@H](Oc3ccc(C(C)C(=O)NC4CC4C)cc3)C2)c1F (single isomer, unassigned) [Example 1.3] | 101 nM
14 | CCCNc1nccc(N2CC[C@@H](Oc3ccc(C(C)C(=O)NC4CC4C)cc3)C2)c1F (single isomer, unassigned) [Example 1.4] | 118 nM
15 | CCCNc1nccc(N2CC[C@@H](Oc3ccc(C(C)C(=O)NC4CC4)cc3)C2)c1F (some centres unmarked) [Example 1.2] | 61 nM
16 | CC(C(=O)NC1CC1)c1ccc(O[C@@H]2CCN(c3ncnc(OCC(C)(F)F)c3F)C2)cc1 (some centres unmarked) [Example 1.5] | 133 nM
17 | CC(C(=O)NC1CC1)c1ccc(O[C@@H]2CCN(c3nc(N(C)C)ncc3F)C2)cc1 (some centres unmarked) [Example 1.7] | 170 nM
18 | CC(C(=O)NC1CC1)c1ccc(O[C@@H]2CCN(c3ccc(OCC4CC4(F)F)cn3)C2)cc1 (some centres unmarked) [Example 1.8] | 179 nM
19 | CC(C(=O)NC1CC1C)c1ccc(O[C@@H]2CCN(c3nc(N(C)C)ncc3F)C2)cc1 (some centres unmarked) [Example 1.9] | 195 nM
20 | CC(C(=O)NC1CC1C)c1ccc(O[C@@H]2CCN(c3ccc(OCC4CC4(F)F)cn3)C2)cc1 (some centres unmarked) [Example 1.10] | 205 nM
21 | CCCNc1nccc(N2CC[C@@H](Oc3ccc(C(C)C(=O)NCC)cc3)C2)c1F (some centres unmarked) [Example 1.11] | 213 nM
22 | CC(C(=O)NC1CC1C)c1ccc(O[C@@H]2CCN(c3ccc(OCC4CC4(F)F)cn3)C2)cc1 (some centres unmarked) [Example 1.12] | 220 nM

Row | SMILES | IC50
23 | CC(C(=O)NC1CC1C)c1ccc(O[C@@H]2CCN(c3ncnc(OCC(C)(C)O)c3Cl)C2)cc1 (some centres unmarked) [Example 1.13] | 233 nM
24 | CC(C(=O)NC1CC1C)c1ccc(O[C@@H]2CCN(c3ncnc(OCC(C)(F)F)c3F)C2)cc1 (some centres unmarked) [Example 1.14] | 244 nM
25 | CC(C(=O)NCC(F)F)c1ccc(O[C@@H]2CCN(c3ccc(OCC4CC4(F)F)cn3)C2)cc1 (some centres unmarked) [Example 1.15] | 263 nM
26 | C#CCNC(=O)C(C)c1ccc(O[C@@H]2CCN(c3ccnc(NCCC)c3F)C2)cc1 (some centres unmarked) [Example 1.16] | 266 nM
27 | CCNC(=O)C(C)c1ccc(O[C@@H]2CCN(c3ncnc(OCC(C)(C)O)c3Cl)C2)cc1 (some centres unmarked) [Example 1.17] | 272 nM
28 | C=C(C)CNC(=O)C(C)c1ccc(O[C@@H]2CCN(c3ccnc(NCCC)c3F)C2)cc1 (some centres unmarked) [Example 1.18] | 286 nM
29 | CCCNc1nccc(N2CC[C@@H](Oc3ccc(C(C)C(=O)NCCF)cc3)C2)c1F (some centres unmarked) [Example 1.19] | 296 nM
30 | C#CCNC(=O)C(C)c1ccc(O[C@@H]2CCN(c3ncnc(OCC(C)(C)O)c3Cl)C2)cc1 (some centres unmarked) [Example 1.20] | 306 nM
31 | CCCNc1nccc(N2CC[C@@H](Oc3ccc(C(C)C(=O)NCC(F)F)cc3)C2)c1F (some centres unmarked) [Example 1.21] | 309 nM
32 | CC(C(=O)NC1CC1C)c1ccc(O[C@@H]2CCN(c3ncnc(OCC(C)(F)F)c3F)C2)cc1 (some centres unmarked) [Example 1.22] | 311 nM
33 | C=C(C)CNC(=O)C(C)c1ccc(O[C@@H]2CCN(c3ncnc(OCC(C)(C)O)c3Cl)C2)cc1 (some centres unmarked) [Example 1.23] | 315 nM
34 | CCCNc1nccc(N2CC[C@@H](Oc3ccc(C(C)C(=O)NC(C)C)cc3)C2)c1F (some centres unmarked) [Example 1.24] | 319 nM
35 | C=CCNC(=O)C(C)c1ccc(O[C@@H]2CCN(c3ncnc(OCC(C)(C)O)c3Cl)C2)cc1 (some centres unmarked) [Example 1.25] | 322 nM
36 | CC(C(=O)NC1CC1C)c1ccc(O[C@@H]2CCN(c3ncnc(OCC(C)(C)O)c3Cl)C2)cc1 (some centres unmarked) [Example 1.26] | 325 nM
37 | CCNC(=O)C(C)c1ccc(O[C@@H]2CCN(c3nc(N(C)C)ncc3F)C2)cc1 (some centres unmarked) [Example 1.27] | 345 nM
38 | CNC(=O)C(C)c1ccc(O[C@@H]2CCN(c3ccc(OCC4CC4(F)F)cn3)C2)cc1 (some centres unmarked) [Example 1.28] | 346 nM
39 | CCCNc1nccc(N2CC[C@@H](Oc3ccc(C(C)C(=O)N[C@H](C)CC)cc3)C2)c1F (some centres unmarked) [Example 1.29] | 367 nM
40 | CCNC(=O)C(C)c1ccc(O[C@@H]2CCN(c3ncnc(OCC(C)(F)F)c3F)C2)cc1 (some centres unmarked) [Example 1.30] | 378 nM
41 | C=CCNC(=O)C(C)c1ccc(O[C@@H]2CCN(c3ccc(OCC4CC4(F)F)cn3)C2)cc1 (some centres unmarked) [Example 1.31] | 381 nM
42 | CCCNC(=O)C(C)c1ccc(O[C@@H]2CCN(c3ccnc(NCCC)c3F)C2)cc1 (some centres unmarked) [Example 1.32] | 402 nM
43 | CCCNc1nccc(N2CC[C@@H](Oc3ccc(C(C)C(=O)Nc4cccnc4)cc3)C2)c1F (some centres unmarked) [Example 1.35] | 410 nM
44 | CC(C(=O)NCC(F)F)c1ccc(O[C@@H]2CCN(c3ncnc(OCC(C)(C)O)c3Cl)C2)cc1 (some centres unmarked) [Example 1.36] | 413 nM

Row | SMILES | IC50
45 | C=C(C)CNC(=O)C(C)c1ccc(O[C@@H]2CCN(c3ccc(OCC4CC4(F)F)cn3)C2)cc1 (some centres unmarked) [Example 1.37] | 418 nM
46 | CCCNC(=O)C(C)c1ccc(O[C@@H]2CCN(c3ncnc(OCC(C)(C)O)c3Cl)C2)cc1 (some centres unmarked) [Example 1.40] | 437 nM
47 | CCCNc1nccc(N2CC[C@@H](Oc3ccc(C(C)C(=O)NC4CCC4)cc3)C2)c1F (some centres unmarked) [Example 1.41] | 438 nM
48 | C#CCNC(=O)C(C)c1ccc(O[C@@H]2CCN(c3ncnc(OCC(C)(F)F)c3F)C2)cc1 (some centres unmarked) [Example 1.42] | 441 nM
49 | CC(C(=O)NCC(F)F)c1ccc(O[C@@H]2CCN(c3nc(N(C)C)ncc3F)C2)cc1 (some centres unmarked) [Example 1.43] | 443 nM
50 | C=C(C)CNC(=O)C(C)c1ccc(O[C@@H]2CCN(c3nc(N(C)C)ncc3F)C2)cc1 (some centres unmarked) [Example 1.44] | 454 nM
51 | C=CCNC(=O)C(C)c1ccc(O[C@@H]2CCN(c3ncnc(OCC(C)(F)F)c3F)C2)cc1 (some centres unmarked) [Example 1.45] | 463 nM
52 | CC(C(=O)NCC(F)F)c1ccc(O[C@@H]2CCN(c3ncnc(OCC(C)(F)F)c3F)C2)cc1 (some centres unmarked) [Example 1.46] | 470 nM
53 | CC[C@@H](C)NC(=O)C(C)c1ccc(O[C@@H]2CCN(c3ncnc(OCC(C)(C)O)c3Cl)C2)cc1 (some centres unmarked) [Example 1.47] | 472 nM
54 | CC(C(=O)Nc1cccnc1)c1ccc(O[C@@H]2CCN(c3ncnc(OCC(C)(F)F)c3F)C2)cc1 (some centres unmarked) [Example 1.48] | 480 nM
55 | CC(C)NC(=O)C(C)c1ccc(O[C@@H]2CCN(c3ncnc(OCC(C)(C)O)c3Cl)C2)cc1 (some centres unmarked) [Example 1.49] | 492 nM
56 | CC(C(=O)NC1CCC1)c1ccc(O[C@@H]2CCN(c3ncnc(OCC(C)(C)O)c3Cl)C2)cc1 (some centres unmarked) [Example 1.50] | 501 nM
57 | CC(C(=O)NCCF)c1ccc(O[C@@H]2CCN(c3nc(N(C)C)ncc3F)C2)cc1 (some centres unmarked) [Example 1.51] | 512 nM
58 | CCCNC(=O)C(C)c1ccc(O[C@@H]2CCN(c3ccc(OCC4CC4(F)F)cn3)C2)cc1 (some centres unmarked) [Example 1.52] | 533 nM
59 | C=C(C)CNC(=O)C(C)c1ccc(O[C@@H]2CCN(c3ncnc(OCC(C)(F)F)c3F)C2)cc1 (some centres unmarked) [Example 1.53] | 538 nM
60 | CC(C(=O)NCCF)c1ccc(O[C@@H]2CCN(c3ncnc(OCC(C)(C)O)c3Cl)C2)cc1 (some centres unmarked) [Example 1.54] | 547 nM
61 | CC(C(=O)NCCF)c1ccc(O[C@@H]2CCN(c3ncnc(OCC(C)(F)F)c3F)C2)cc1 (some centres unmarked) [Example 1.55] | 573 nM
62 | CNC(=O)C(C)c1ccc(O[C@@H]2CCN(c3nc(N(C)C)ncc3F)C2)cc1 (some centres unmarked) [Example 1.56] | 579 nM
63 | CC(C(=O)N[C@H](C)CO)c1ccc(O[C@@H]2CCN(c3ccc(OCC4CC4(F)F)cn3)C2)cc1 (some centres unmarked) [Example 1.57] | 591 nM
64 | CC[C@@H](C)NC(=O)C(C)c1ccc(O[C@@H]2CCN(c3ccc(OCC4CC4(F)F)cn3)C2)cc1 (some centres unmarked) [Example 1.58] | 598 nM
65 | CC[C@@H](C)NC(=O)C(C)c1ccc(O[C@@H]2CCN(c3ncnc(OCC(C)(F)F)c3F)C2)cc1 (some centres unmarked) [Example 1.59] | 603 nM
